Experimental data as given in article PMC5393024, “Discovery and characterization of natural tropolones as inhibitors of the antibacterial target CapF from Staphylococcus aureus” (Scientific Reports, 2015).

Tests used:
[1] = target: holo-CapF (reconstituted with Zn^2+) (Staphylococcus aureus, UniProt A0A0H3JP37); test: ITC binding to CapF reconstituted with Zn2+ (holo-CapF)
Text: (§1) Because tropolone and its analogs have been described as metal chelators in proteins, we anticipated that binding of the inhibitor to CapF is governed by the Zn^2+ ion present in the cupin domain[12]. To confirm this hypothesis, we performed two different types of experiments. First, we determined the binding properties of 3-isopropenyl-tropolone to apo-CapF (i.e. Zn^2+-depleted CapF) and to holo-CapF (reconstituted with Zn^2+) by isothermal titration calorimetry (ITC). The stoichiometry is consistent with a 1:1 binding model.
(§2) Figure 3 Binding of 3-isopropenyl-tropolone to CapF requires Zn^2+. CapF (150 μM) reconstituted with Zn^2+ was titrated with 1.65 mM inhibitor in the absence (a) or the presence (b) of 1 mM EDTA. The upper panels correspond to the titration data, and the lower panels to the integrated binding isotherms. (c) Binding competition assay. CapF (1.0 μM) reconstituted with Zn^2+ in the presence of the Zn^2+-sensitive dye FluoZin-3 (1.0 μM) was titrated with 3-isopropenyl-tropolone (λEX = 490 nm; λEM = 520 nm).
(§3) Binding constants and thermodynamic parameters of the interaction between CapF and fragment compounds were determined with an iTC200 instrument (GE Healthcare) at 25 °C. Samples were equilibrated in a buffer composed of 10 mM HEPES (pH 7.4) and 150 mM NaCl supplemented with 5% (v/v) DMSO. CapF at 150–270 μM was titrated with compounds at 0.5–1.65 mM. Analysis of the data was performed with ORIGIN7 using a one-site binding model.
Figure S8. Binding isotherms of compounds with CapF as determined by ITC. (a) tropone, (b) 2-Cl-tropone, (c) tropolone, (d) 4-isopropyl-tropolone. Concentration of CapF in the cell was 150 µM, except in panel (a) where it was 270 µM. Concentration of compounds was 1.65 mM, except in panel (a) where it was 0.5 mM. Titrations were performed in an iTC200 instrument at 25 °C.
Data analysis was carried out with ORIGIN.

[2] = system: apo-CapF (Zn^2+-depleted); test: ITC binding to Zn2+-depleted CapF (1 mM EDTA); design: species or system Staphylococcus aureus; details: 150 μM CapF, 1.65 mM inhibitor
Text: as §1, §2
as §3, with “Analysis of the data was performed with ORIGIN7 using a one-site binding model.” left out

[3] = ITC titration of free Zn2+ in solution; type: binding; details: 150 µM Zn2+ (ZnCl2) titrated with 1.65 mM compound
Text: as §1
Figure S3. Zn2+ governs the binding of inhibitor to CapF. (a) Titration of 150 µM Zn2+ (prepared
from ZnCl2) with 1.65 mM 3-isopropenyl-tropolone. (b) Fluorescence of the Zn2+-sensitive dye
FluoZin-3 (1.0 µM) in the presence of CapF (1 µM), CapF (1 µM) with 3-isopropenyl-tropolone […]

CapF = test: HPLC-based inhibition assay (CapE/CapF coupled reaction); type: biochemical, Staphylococcus aureus; details: 1 mM compound, 37 °C, 2 hours
Protocol: (§4) For that purpose, an HPLC-based assay monitoring the consumption of substrate and the appearance of product was employed (Fig. 2b)[12]. Whereas in the absence of 3-isopropenyl-tropolone the substrate was converted into product with nearly quantitative yield (91%), in the presence of 1 mM 3-isopropenyl-tropolone the peaks corresponding to substrate and product were largely absent (their combined areas were <18%). Instead, a large peak corresponding to the byproduct generated by the enzyme CapE under thermodynamic control was observed (80% yield as judged from the area under the curve). To confirm that inhibition of 3-isopropenyl-tropolone is specific for CapF we performed an additional experiment employing only CapE, which is the enzyme generating the substrate for CapF in the functional assay (Supplementary Information Figure S2).
For the HPLC-based inhibition assay, a solution containing 1.0 μM CapE, 0.02 μM CapF, 250 μM UDP-D-GlcNAc, 250 μM NADPH, and 1 mM compound in HBS buffer supplemented with 0.005% (v/v) Tween-20 and 5% (v/v) DMSO were incubated at 37 °C for 2 hours. The reaction was stopped by addition of 100 μL of ice-cold phenol/chloroform/isoamyl alcohol in a 25:24:1 […]. The supernatant containing the products of the reaction was mixed with 100 μL of chloroform and examined by HPLC using a CarboPac PA1 anion-exchange column (Dionex) as described previously. […]

CapE = test: HPLC assay employing only CapE; type: biochemical, Staphylococcus aureus; details: CapF not present
Protocol: as §4
Figure S2. Elution profile of compounds after incubation of the substrate UDP-D-GlcNAc with
CapE in the absence (red line) and presence (black line) of 3-isopropenyl-tropolone. In this
experiment CapF was not present. Experimental conditions are described in the Methods section.
The blue, red and green triangles indicate the elution peaks of product, substrate, and by-product,
(1 picture or pasted object on this page, not shown here)

[4] = system: CapF reconstituted with Zn^2+; test: FluoZin-3 binding competition assay; design: species or system Staphylococcus aureus
Protocol: as §2
Second, the fluorescence of the Zn^2+-specific indicator FluoZin-3[19][20] was examined in the presence of CapF. The signal of FluoZin-3 increases dramatically in the presence of Zn^2+ ions when the metal is accessible to the dye. […] In contrast, the fluorescence of FluoZin-3 with apo-CapF, or with holo-CapF in the presence of 3-isopropenyl-tropolone, was negligible.
Fluorescence measurements were carried out using the Zn^2+-sensitive dye FluoZin-3 (Life Technologies) in a buffer composed of 10 mM HEPES, 150 mM NaCl (pH 7.4) supplemented with 5% (v/v) DMSO at 25 °C. The fluorescence intensities were measured in a plate reader (PHERAstar, BMG Labtech, Durham, NC) with excitation and emission wavelengths set to 490 nm and 520 nm, respectively.
Figure S3. Zn2+ governs the binding of inhibitor to CapF. […]
from ZnCl2) with 1.65 mM 3-isopropenyl-tropolone. (b) Fluorescence of the Zn2+-sensitive dye […]

WT CapF = test: DSC thermal stability of WT CapF; type: binding, Staphylococcus aureus; details: 24 μM protein, 240 μM inhibitor
Protocol: Thermal stability of CapF was examined by DSC in a ultrasensitive VP-capillary micro-calorimeter (Microcal). Prior to the experiment the protein was equilibrated in a buffer composed of 50 mM HEPES (pH 7.5), 50 mM NaCl and 5% DMSO. The concentration of protein and inhibitor were adjusted to 24 μM and 240 μM, respectively. The samples were heated between 10 and 110 °C at a scan rate of 1 °C/min. Data analysis was carried out with ORIGIN7 using a two-state transition model.

Chain of holo-CapF (reconstituted with Zn^2+) (A0A0H3JP37 entry or part of it): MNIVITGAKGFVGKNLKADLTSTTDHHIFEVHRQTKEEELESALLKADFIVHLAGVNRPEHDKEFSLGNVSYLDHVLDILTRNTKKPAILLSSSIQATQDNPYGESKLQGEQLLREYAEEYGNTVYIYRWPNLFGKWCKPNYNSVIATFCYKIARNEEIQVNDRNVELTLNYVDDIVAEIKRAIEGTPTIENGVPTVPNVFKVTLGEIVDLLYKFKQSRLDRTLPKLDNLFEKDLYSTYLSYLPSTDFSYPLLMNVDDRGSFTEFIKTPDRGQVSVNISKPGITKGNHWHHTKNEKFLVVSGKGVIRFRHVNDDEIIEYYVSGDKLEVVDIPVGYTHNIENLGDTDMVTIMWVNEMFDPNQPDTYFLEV

C=C(C)c1ccccc(=O)c1O [3-isopropenyl-tropolone]
Kd [1]: 27 ± 12 µM | n (binding stoichiometry) ([1]; ITC, 25 °C): 1.2 ± 0.1 | ΔH° ([1]; ITC, 25 °C): -3.4 ± 0.9 kcal/mol | −TΔS° ([1]; ITC, 25 °C): -2.8 ± 1.1 kcal/mol | ligand efficiency (LE = −ΔG/HAC) ([1]; from ITC binding free energy): 0.52 kcal/mol | binding to apo-CapF by ITC [2]: does not bind | binding to free-Zn^2+ in solution by ITC [3]: not detected | yield of byproduct generated by CapE (area under the curve) (CapF): 80% | combined areas of substrate and product peaks (CapF; 91% product without inhibitor): < 18% | HPLC profile of the reaction products of CapE in presence of inhibitor (CapE): not altered | inflexion point of FluoZin-3 fluorescence signal vs concentration of compound ([4]; CapF 1.0 μM, FluoZin-3 1.0 μM, 25 °C): 51 µM | fluorescence of FluoZin-3 with holo-CapF in the presence of compound ([4]; CapF 1 µM, compound 1.0 mM): negligible | ΔTM (decrease in thermal stability) (WT CapF): 5.2 ± 0.4 °C | TM (WT CapF; WT CapF alone 59.9 ± 0.2): 54.7 ± 0.2 °C
